Measured values from patent US8580794B2 (AbbVie Inc., priority 2009, dated 2013).
Read-outs that look alike come from different tables or passages of the source.

Legend:
GST-Bc1-2 = GST-Bc1-2 (Homo sapiens, UniProt P10415); experiment: Time Resolved-Fluorescence Resonance Energy Transfer (TR-FRET) Bcl-2 binding assay with F-Bak peptide probe
RS4;11 cells = experiment: RS4;11 Cell Viability Assay (CellTiter Glo); type: cell-based; details: 10% human serum;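 note: RS4,11 acute lymphoblastic leukemia cells, viability as percent of untreated control cells, EC50 for loss of viable cells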
Protocol: The acute lymphoblastic leukemia (ALL) cell line RS4;11 was used as the primary human cell line to assess the cellular activity of Bcl-2 selective agents in vitro and their efficacy in vivo.
Cell cytotoxicity EC50 values were assessed using CellTiter Glo (Promega) according to the manufacturer's recommendations. The EC50 values were determined as a percentage of viable cells following treatment compared to the untreated control cells.

[1] = GST-Bcl-2 1 nM, F-Bak probe 100 nM, Tb-anti-GST 1 nM, '<' = below limit of detection, read-out: TR-FRET Bcl-2 Binding Ki
[2] = Homo sapiens, RS4-11, 48 h, 50,000 cells per well

Sequence of GST-Bc1-2 (P10415 whole entry): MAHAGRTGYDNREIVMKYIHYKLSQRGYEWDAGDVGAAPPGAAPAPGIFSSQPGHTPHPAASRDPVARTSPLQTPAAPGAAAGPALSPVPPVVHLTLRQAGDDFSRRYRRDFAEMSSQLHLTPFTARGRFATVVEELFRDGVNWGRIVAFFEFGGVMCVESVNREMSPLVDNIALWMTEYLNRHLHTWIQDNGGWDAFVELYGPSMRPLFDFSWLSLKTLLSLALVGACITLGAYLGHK

Row | SMILES | Ki (GST-Bc1-2; [1]) [nM] | EC50 (RS4;11 cells; [2]) [nM] | other results
1 | COCC1(C)CCC(CN2CCN(c3ccc(C(=O)NS(=O)(=O)c4ccc(NCC5CCOCC5)c([N+](=O)[O-])c4)c(Oc4cnc5[nH]ccc5c4)c3)CC2)=C(c2ccc(Cl)cc2)C1 (stereo not drawn) [Example 390, 4-(4-{[2-(4-chlorophenyl)-4-(methoxymethyl)-4-methylcyclohex-1-en-1-yl]methyl}piperazin-1-yl)-N-({3-nitro-4-[(tetrahydro-2H-pyran-4-ylmethyl)amino]phenyl}sulfonyl)-2-(1H-pyrrolo[2,3-b]pyridin-5-yloxy)benzamide] | < 0.01 | 5.06 | –
2 | CC1(C)CCC(CN2CCN(c3ccc(C(=O)NS(=O)(=O)c4ccc(OCC5CCC(CO)(CO)CC5)c([N+](=O)[O-])c4)c(Oc4cnc5[nH]ccc5c4)c3)CC2)=C(c2ccc(Cl)cc2)C1 [Example 391, N-[(4-{[4,4-bis(hydroxymethyl)cyclohexyl]methoxy}-3-nitrophenyl)sulfonyl]-4-(4-{[2-(4-chlorophenyl)-4,4-dimethylcyclohex-1-en-1-yl]methyl}piperazin-1-yl)-2-(1H-pyrrolo[2,3-b]pyridin-5-yloxy)benzamide] | < 0.01 | 8.41 | –
3 | CC1(C)CCC(CN2CCN(c3ccc(C(=O)NS(=O)(=O)c4ccc(OC[C@H]5CC[C@H](O)CC5)c([N+](=O)[O-])c4)c(Oc4cnc5[nH]ccc5c4)c3)CC2)=C(c2ccc(Cl)cc2)C1 [Example 196, Trans-4-(4-{[2-(4-chlorophenyl)-4,4-dimethylcyclohex-1-en-1-yl]methyl}piperazin-1-yl)-N-({4-[(4-hydroxycyclohexyl)methoxy]-3-nitrophenyl}sulfonyl)-2-(1H-pyrrolo[2,3-b]pyridin-5-yloxy)benzamide] | – | 1.72 | –
4 | CC1(O)CCC(COc2ncc(S(=O)(=O)NC(=O)c3ccc(N4CCN(CC5=C(c6ccc(Cl)cc6)CC6(CC5)CC6)CC4)cc3Oc3cnc4[nH]ccc4c3)cc2Cl)CC1 (stereo not drawn) [Example 341, N-({5-chloro-6-[(trans-4-hydroxy-4-methylcyclohexyl)methoxy]pyridin-3-yl}sulfonyl)-4-(4-{[5-(4-chlorophenyl)spiro[2.5]oct-5-en-6-yl]methyl}piperazin-1-yl)-2-(1H-pyrrolo[2,3-b]pyridin-5-yloxy)benzamide] | – | 31.7 | –
5 | COC[C@H]1CC[C@H](CNc2ccc(S(=O)(=O)NC(=O)c3ccc(N4CCN(CC5=C(c6ccc(Cl)cc6)CC(C)(C)CC5)CC4)cc3Oc3cnc4[nH]ccc4c3)cc2[N+](=O)[O-])CC1 [Example 383, 4-(4-{[2-(4-chlorophenyl)-4,4-dimethylcyclohex-1-en-1-yl]methyl}piperazin-1-yl)-N-{[4-({[trans-4-(methoxymethyl)cyclohexyl]methyl}amino)-3-nitrophenyl]sulfonyl}-2-(1H-pyrrolo[2,3-b]pyridin-5-yloxy)benzamide] | < 0.01 | 12.4 | –
6 | COCC1(O)CCC(COc2ncc(S(=O)(=O)NC(=O)c3ccc(N4CCN(CC5=C(c6ccc(Cl)cc6)CC(C)(C)CC5)CC4)cc3Oc3cnc4[nH]ccc4c3)cc2Cl)CC1 (stereo not drawn) [Example 399, N-[(5-chloro-6-{[trans-4-hydroxy-4-(methoxymethyl)cyclohexyl]methoxy}pyridin-3-yl)sulfonyl]-4-(4-{[2-(4-chlorophenyl)-4,4-dimethylcyclohex-1-en-1-yl]methyl}piperazin-1-yl)-2-(1H-pyrrolo[2,3-b]pyridin-5-yloxy)benzamide] | < 0.01 | 127 | –
7 | CC1(C)CCC(CN2CCN(c3ccc(C(=O)NS(=O)(=O)c4cnc(OCC5CCC6(CC5)CNC(=O)O6)c(Cl)c4)c(Oc4cnc5[nH]ccc5c4)c3)CC2)=C(c2ccc(Cl)cc2)C1 (single isomer, unassigned) [Example 397, N-[(5-chloro-6-{[(5s,8s)-2-oxo-1-oxa-3-azaspiro[4.5]dec-8-yl]methoxy}pyridin-3-yl)sulfonyl]-4-(4-{[2-(4-chlorophenyl)-4,4-dimethylcyclohex-1-en-1-yl]methyl}piperazin-1-yl)-2-(1H-pyrrolo[2,3-b]pyridin-5-yloxy)benzamide] | 0.041 | – | EC50 (RS4;11 cells; 50,000 cells per well, 48 hours): 113 nM
8 | CC1(C)CCC(CN2CCN(c3ccc(C(=O)NS(=O)(=O)c4cnc(OC[C@H]5CC[C@@](O)(CO)CC5)c(Cl)c4)c(Oc4cnc5[nH]ccc5c4)c3)CC2)=C(c2ccc(Cl)cc2)C1 [Example 401, N-[(5-chloro-6-{[trans-4-hydroxy-4-(hydroxymethyl)cyclohexyl]methoxy}pyridin-3-yl)sulfonyl]-4-(4-{[2-(4-chlorophenyl)-4,4-dimethylcyclohex-1-en-1-yl]methyl}piperazin-1-yl)-2-(1H-pyrrolo[2,3-b]pyridin-5-yloxy)benzamide] | < 0.01 | 26.6 | –
9 | CC1(C)CCC(CN2CCN(c3ccc(C(=O)NS(=O)(=O)c4ccc(N[C@@H]5CCN(CCF)C5)c([N+](=O)[O-])c4)c(Oc4cnc5[nH]ccc5c4)c3)CC2)=C(c2ccc(Cl)cc2)C1 [Example 183, 4-(4-{[2-(4-chlorophenyl)-4,4-dimethylcyclohex-1-en-1-yl]methyl}piperazin-1-yl)-N-[(4-{[(3R)-1-(2-fluoroethyl)pyrrolidin-3-yl]amino}-3-nitrophenyl)sulfonyl]-2-(1H-pyrrolo[2,3-b]pyridin-5-yloxy)benzamide] | < 0.01 | 17.5 | –
10 | CC1(C)CCC(CN2CCN(c3ccc(C(=O)NS(=O)(=O)c4cnc(NC5CCN(C6CCOCC6)CC5)c(Br)c4)c(Oc4cnc5[nH]ccc5c4)c3)CC2)=C(c2ccc(Cl)cc2)C1 [Example 61, N-({5-bromo-6-[(1-tetrahydro-2H-pyran-4-ylpiperidin-4-yl)amino]pyridin-3-yl}sulfonyl)-4-(4-{[2-(4-chlorophenyl)-4,4-dimethylcyclohex-1-en-1-yl]methyl}piperazin-1-yl)-2-(1H-pyrrolo[2,3-b]pyridin-5-yloxy)benzamide] | 0.091 | 183 | –
11 | CC1(C)CCC(CN2CCN(c3ccc(C(=O)NS(=O)(=O)c4ccc(NC(=O)N5CCC(N6CCOCC6)CC5)c(Cl)c4)c(Oc4cnc5[nH]ccc5c4)c3)CC2)=C(c2ccc(Cl)cc2)C1 [Example 398, N-(2-chloro-4-{[4-(4-{[2-(4-chlorophenyl)-4,4-dimethylcyclohex-1-en-1-yl]methyl}piperazin-1-yl)-2-(1H-pyrrolo[2,3-b]pyridin-5-yloxy)benzoyl]sulfamoyl}phenyl)-4-(morpholin-4-yl)piperidine-1-carboxamide] | 0.149 | 548 | –
12 | CC1(C)CCC(CN2CCN(c3ccc(C(=O)NS(=O)(=O)c4ccc(OCC5CCC(C)(O)CC5)c(Cl)c4)c(Oc4cnc5[nH]ccc5c4)c3)CC2)=C(c2ccc(Cl)cc2)C1 (stereo not drawn) [Example 362, N-({3-chloro-4-[(trans-4-hydroxy-4-methylcyclohexyl)methoxy]phenyl}sulfonyl)-4-(4-{[2-(4-chlorophenyl)-4,4-dimethylcyclohex-1-en-1-yl]methyl}piperazin-1-yl)-2-(1H-pyrrolo[2,3-b]pyridin-5-yloxy)benzamide] | – | 31.7 | –
13 | [2H]C1([2H])N(CC2=C(c3ccc(Cl)cc3)CC(C)(C)CC2)C([2H])([2H])C([2H])([2H])N(c2ccc(C(=O)NS(=O)(=O)c3ccc(NCC4CCOCC4)c([N+](=O)[O-])c3)c(Oc3cnc4[nH]ccc4c3)c2)C1([2H])[2H] [Example 369, 4-[4-{[2-(4-chlorophenyl)-4,4-dimethylcyclohex-1-en-1-yl]methyl}(2H8)piperazin-1-yl]-N-({3-nitro-4-[(tetrahydro-2H-pyran-4-ylmethyl)amino]phenyl}sulfonyl)-2-(1H-pyrrolo[2,3-b]pyridin-5-yloxy)benzamide] | – | 8 | –
14 | CC1(C)CCC(CN2CCN(c3ccc(C(=O)NS(=O)(=O)c4ccc(NCC5CCC(C)(O)CC5)c([N+](=O)[O-])c4)c(Oc4cnc5[nH]ccc5c4)c3)CC2)=C(c2ccc(Cl)cc2)C1 (stereo not drawn) [Example 337, 4-(4-{[2-(4-chlorophenyl)-4,4-dimethylcyclohex-1-en-1-yl]methyl}piperazin-1-yl)-N-[(4-{[(trans-4-hydroxy-4-methylcyclohexyl)methyl]amino}-3-nitrophenyl)sulfonyl]-2-(1H-pyrrolo[2,3-b]pyridin-5-yloxy)benzamide] | – | 1.76 | –
15 | CC1(C)CCC(CN2CCN(c3ccc(C(=O)NS(=O)(=O)c4ccc(N[C@H]5CCN(C6CCOC(C)(C)C6)C5)c([N+](=O)[O-])c4)c(Oc4cnc5[nH]ccc5c4)c3)CC2)=C(c2ccc(Cl)cc2)C1 (stereo partly drawn) [Example 133, 4-(4-{[2-(4-chlorophenyl)-4,4-dimethylcyclohex-1-en-1-yl]methyl}piperazin-1-yl)-N-[(4-{[(3S)-1-(2,2-dimethyltetrahydro-2H-pyran-4-yl)pyrrolidin-3-yl]amino}-3-nitrophenyl)sulfonyl]-2-(1H-pyrrolo[2,3-b]pyridin-5-yloxy)benzamide] | < 0.01 | – | –
16 | CC1(C)CCC(CN2CCN(c3ccc(C(=O)NS(=O)(=O)c4ccc(N[C@H]5CC[C@H](N6CCN(C7CCOCC7)CC6)CC5)c([N+](=O)[O-])c4)c(Oc4cnc5[nH]ccc5c4)c3)CC2)=C(c2ccc(Cl)cc2)C1 [Example 128, Trans-4-(4-{[2-(4-chlorophenyl)-4,4-dimethylcyclohex-1-en-1-yl]methyl}piperazin-1-yl)-N-[(3-nitro-4-{[4-(4-tetrahydro-2H-pyran-4-ylpiperazin-1-yl)cyclohexyl]amino}phenyl)sulfonyl]-2-(1H-pyrrolo[2,3-b]pyridin-5-yloxy)benzamide] | < 0.01 | – | –
17 | CC1(C)CCC(CN2CCN(c3ccc(C(=O)NS(=O)(=O)c4ccc(NCC5CCOCC5)c(S(=O)(=O)C(F)(F)F)c4)c(Oc4ccc5[nH]ccc5c4)c3)CC2)=C(c2ccc(Cl)cc2)C1 [Example 94, 4-(4-{[2-(4-chlorophenyl)-4,4-dimethylcyclohex-1-en-1-yl]methyl}piperazin-1-yl)-2-(1H-indol-5-yloxy)-N-({4-[(tetrahydro-2H-pyran-4-ylmethyl)amino]-3-[(trifluoromethyl)sulfonyl]phenyl}sulfonyl)benzamide] | – | – | Ki (GST-Bc1-2; TR-FRET Bcl-2 Binding Ki): 0.678 nM; Ki (GST-Bc1-2; read-out: Bcl-2 FRET ki): 0.678 nM
